Data on two molecules can be found in article PMC4873483 (Experimental Animals, 2015).

For one series, the system named is plasma proteins. As to conditions: cited from earlier work.
For series [1] the following is noted: mice, within 48 h post dose; cited from earlier work.
Series [2] in a line: Pharmacokinetic study following repeated s.c. administration of 1-MT. The format is in vivo, domestic pigs (Sus scrofa domestica).
The format of series [3] is in vivo, domestic pigs (Sus scrofa domestica).
For series [4] the following is noted: repeated oral administration at a saturating dose, rats and dogs; cited from earlier work.
Series [5] in a line: Pharmacokinetic study following a single s.c. administration of 1-MT. As to conditions: for Cmax: means ± standard deviation. In kind it is in vivo, domestic pigs (Sus scrofa domestica).
The conditions of series [6]: given by mouth over a time frame of up to 4 weeks; cited from earlier work.
[7] abbreviates: 12 h after the final of five daily s.c. injections, n=6.
Setting [8] is: German Landrace, pig, plasma, sc, 1 g.
Where [9] appears, read: one-compartment model fitted by numerical simulation to single-dose plasma data.
The mark [10] stands for this setting: single s.c. administration of 1 g 1-MT, n=3.
[11] abbreviates: endogenous TRP, 12 h after the final s.c. injection of 1-MT.
Where [12] appears, read: endogenous TRP, all four animals.

Where two headings read alike, the source gives them in different places.

As usually defined, the AUC(0-t) is the area under the concentration-time curve up to a stated or last time point. Usually Tmax stands for the time from dosing to the highest level. A word on the half-life: it is the time needed for the level to fall by half in the phase considered. Take `Cn1cc(C[C@H](N)C(=O)O)c2ccccc21` [1-MT, 1-methyl-L-tryptophan]: in the series with plasma proteins, the “bound to plasma proteins” value is recorded as “less than 15%”. In addition, in series [1], the excreted via feces is 13% and the excreted via urine was 35%. Further, the “steady state of plasma trough concentrations” value in series [2] (1 g 1-MT s.c. daily for five days) is recorded as “steady state conditions of trough values were reached after two subcutaneous administrations”. The “1-MT concentrations in peripheral tissues” value in series [2] (12 h after the final of five daily s.c. injections) is recorded as 48–152 nmol/g wet tissue weight. Further, in series [2] (setting [7]), the “1-MT concentration in kidney and liver” value is reported as “greater than 100 nmol/g wet tissue weight”; the “1-MT concentration in the different brain areas” value is listed as “lower than 20 nmol/g wet tissue weight”. Moreover, the concentration at 12 h in series [2] (setting [8]) is 38 µM. Further, the “share of 1-MT accumulated in organs derived from contamination with blood” value in series [2] (estimated from plasma 1-MT and organ blood volumes (32-408 µl/g)) is “less than 5%”. Besides, the daily feed uptake in series [3] (five daily s.c. administrations of 1 g 1-MT, not different from MYR (P = 0.97)) worked out at 0.66 ± 0.02 kg. For the same molecule, the fever response entry in series [3] (five-day period of 1-MT administration) was “no fever response”. In addition, the “health status after a single s.c. injection” value in series [3] (single s.c. 1 g 1-MT, visual inspection twice daily) was “No impairment of the health status could be observed”. For the same molecule, the tolerability entry in series [4] is “well tolerated, with no toxic effects”. For the same molecule, in series [5] (setting [8]), the AUC(0-t) amounted to 960 ± 346 µM·h, the Tmax stood at 12 h and the concentration at 24 h turned out to be 21.1 ± 5.3 µM. The same molecule yielded a Cmax in series [5] (German Landrace, pig, plasma, sc, 1 g, Cmax, maximum concentration in pigs plasma, single s.c. administration of 1 g 1-MT, n=3) of 29.1 ± 8 µM. The molecule also showed a half-life in series [5] (German Landrace, pig, plasma, sc, 1 g, T1/2, half-life, single s.c. administration of 1 g 1-MT, n=3) of 10.9 ± 2 h. In series [5] (setting [9]), the kabsorption is 0.08 min⁻¹, the kelimination was 0.001 min⁻¹ and the krelease is 0.0018 min⁻¹. The Cmax in series [5] (read-out: Cmax, maximum concentration in pigs plasma, single s.c. administration of 1 g 1-MT, n=3) came out at 29.1 ± 7.97 µM. In series [5] (setting [10]), the “T1/2, half-life” value stood at 10.93 ± 2.03 h and the “k, first-order kinetic rate constant” value was found to be 0.065 ± 0.011 h⁻¹. Besides, the maximum tolerated dose in series [6] is 1.6 g/day.

As for `N[C@@H](Cc1c[nH]c2ccccc12)C(=O)O` [TRP, tryptophan], in series [2] (setting [11]), the “TRP concentration in kidney, liver, adrenal gland, spleen, and thyroid gland” value is “greater than 40 nmol/g wet tissue weight”; the “TRP concentration in the other tissues” value is on record as “lower than 30 nmol/g wet tissue”. For the same molecule, in series [5] (setting [12]), the “maximum TRP concentration in plasma over the 7-day period” value came to 37.7 µM and the “minimum TRP concentration in plasma over the 7-day period” value is 13.1 µM. In series [5] (endogenous TRP, all four animals, after single s.c. 1-MT or MYR), the “average TRP concentration in plasma over the entire 7-day period” value was determined as 22.8 ± 5.1 µM.
